Data reported in patent publication US12390451B2, “Small molecule inhibitor of the JAK family of kinases” (Janssen Pharmaceutica NV, priority 2021, dated 2025).
Like-named read-outs stand apart in the source and are kept apart here.

Tests used:
JAK2/JAK2 = biological target: T1, JAK2/JAK2 (Homo sapiens, UniProt O60674); experiment: TPO-induced pSTAT-3 in human whole blood; assay type: cell-based; conditions: mean
T1 construct: endogenous in cells; host or cells: human whole blood
Experimental: (§1) Compound of Formula I presents low levels of systemic exposure after oral administration. To understand the relationship between systemic exposure and target engagement in human studies, the inhibition of cytokine-induced pSTAT-3 in human whole blood was measured with such compound. In human whole blood, compound of Formula I in a concentration-dependent manner inhibited the JAK1, JAK2, JAK3, and Tyk2 homo- and heterodimers downstream of IFNα (JAK1/Tyk2), thrombopoietin (TPO) (JAK2/JAK2), and IL-21 (JAK1/JAK3) signaling.

JAK1/JAK3 = biological target: T2, JAK1/JAK3 (Homo sapiens, UniProt P23458+P52333); experiment: IL-21-induced pSTAT-3 in human whole blood; assay type: cell-based; conditions: mean
T2 construct: endogenous in cells; host or cells: human whole blood
T2 sequence (P23458 whole entry): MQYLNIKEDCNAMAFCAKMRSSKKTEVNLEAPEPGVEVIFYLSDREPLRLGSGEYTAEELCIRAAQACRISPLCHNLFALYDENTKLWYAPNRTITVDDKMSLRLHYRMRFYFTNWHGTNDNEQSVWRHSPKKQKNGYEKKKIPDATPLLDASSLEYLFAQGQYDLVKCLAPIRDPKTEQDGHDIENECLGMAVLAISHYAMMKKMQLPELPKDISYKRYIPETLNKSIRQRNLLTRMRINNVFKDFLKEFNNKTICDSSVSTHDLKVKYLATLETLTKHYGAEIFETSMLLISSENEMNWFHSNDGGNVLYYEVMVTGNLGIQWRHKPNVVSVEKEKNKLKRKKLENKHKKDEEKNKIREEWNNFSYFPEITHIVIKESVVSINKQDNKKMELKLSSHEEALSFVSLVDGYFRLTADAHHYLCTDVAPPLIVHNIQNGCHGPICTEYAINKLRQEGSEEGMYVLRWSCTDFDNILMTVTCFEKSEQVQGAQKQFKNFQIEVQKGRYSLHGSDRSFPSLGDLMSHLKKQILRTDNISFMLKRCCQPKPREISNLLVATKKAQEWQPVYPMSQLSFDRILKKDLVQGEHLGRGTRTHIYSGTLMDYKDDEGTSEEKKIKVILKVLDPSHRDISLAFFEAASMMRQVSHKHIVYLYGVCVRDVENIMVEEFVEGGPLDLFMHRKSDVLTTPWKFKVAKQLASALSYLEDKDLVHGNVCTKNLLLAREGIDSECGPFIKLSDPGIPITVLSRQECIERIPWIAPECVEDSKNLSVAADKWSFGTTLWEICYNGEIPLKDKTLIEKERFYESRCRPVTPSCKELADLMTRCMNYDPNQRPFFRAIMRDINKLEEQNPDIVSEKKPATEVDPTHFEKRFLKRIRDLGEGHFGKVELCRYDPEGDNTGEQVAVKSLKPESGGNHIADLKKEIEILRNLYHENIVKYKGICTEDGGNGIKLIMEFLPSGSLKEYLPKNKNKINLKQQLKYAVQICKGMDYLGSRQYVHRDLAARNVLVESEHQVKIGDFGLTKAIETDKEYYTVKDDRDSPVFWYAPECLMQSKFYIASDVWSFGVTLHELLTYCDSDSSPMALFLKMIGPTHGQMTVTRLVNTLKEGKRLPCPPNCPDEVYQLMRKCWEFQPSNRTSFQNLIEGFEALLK
T2 sequence (P52333 whole entry): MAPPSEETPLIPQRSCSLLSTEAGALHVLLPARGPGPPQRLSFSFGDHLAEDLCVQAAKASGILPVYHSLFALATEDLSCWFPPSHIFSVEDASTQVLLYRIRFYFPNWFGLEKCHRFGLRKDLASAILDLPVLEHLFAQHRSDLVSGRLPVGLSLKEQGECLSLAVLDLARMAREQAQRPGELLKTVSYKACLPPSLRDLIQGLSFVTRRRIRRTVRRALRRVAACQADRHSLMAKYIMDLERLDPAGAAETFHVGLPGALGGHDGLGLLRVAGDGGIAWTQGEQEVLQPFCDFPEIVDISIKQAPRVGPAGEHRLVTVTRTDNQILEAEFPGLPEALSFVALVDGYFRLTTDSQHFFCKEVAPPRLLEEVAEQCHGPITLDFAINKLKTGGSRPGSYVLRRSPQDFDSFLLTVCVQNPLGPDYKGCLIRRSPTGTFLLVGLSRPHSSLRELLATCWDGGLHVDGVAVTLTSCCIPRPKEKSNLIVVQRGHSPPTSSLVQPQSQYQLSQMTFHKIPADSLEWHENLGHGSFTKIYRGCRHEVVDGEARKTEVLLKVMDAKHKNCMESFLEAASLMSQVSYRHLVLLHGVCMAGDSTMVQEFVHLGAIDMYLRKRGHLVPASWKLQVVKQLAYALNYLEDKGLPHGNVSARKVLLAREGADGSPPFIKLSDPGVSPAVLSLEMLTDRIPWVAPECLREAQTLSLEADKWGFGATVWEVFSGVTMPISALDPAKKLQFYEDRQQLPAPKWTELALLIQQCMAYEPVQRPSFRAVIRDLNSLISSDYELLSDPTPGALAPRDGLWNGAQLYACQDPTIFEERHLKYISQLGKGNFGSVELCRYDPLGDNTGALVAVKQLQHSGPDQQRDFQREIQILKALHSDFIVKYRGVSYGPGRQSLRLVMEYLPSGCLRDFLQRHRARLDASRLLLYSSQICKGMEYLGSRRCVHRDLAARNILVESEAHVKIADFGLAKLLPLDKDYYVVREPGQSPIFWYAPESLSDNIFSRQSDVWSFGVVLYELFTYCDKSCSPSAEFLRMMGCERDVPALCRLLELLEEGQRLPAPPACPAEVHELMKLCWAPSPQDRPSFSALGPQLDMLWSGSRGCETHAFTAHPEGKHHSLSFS
T2 sequence (Q9HBE5 20-538 partner): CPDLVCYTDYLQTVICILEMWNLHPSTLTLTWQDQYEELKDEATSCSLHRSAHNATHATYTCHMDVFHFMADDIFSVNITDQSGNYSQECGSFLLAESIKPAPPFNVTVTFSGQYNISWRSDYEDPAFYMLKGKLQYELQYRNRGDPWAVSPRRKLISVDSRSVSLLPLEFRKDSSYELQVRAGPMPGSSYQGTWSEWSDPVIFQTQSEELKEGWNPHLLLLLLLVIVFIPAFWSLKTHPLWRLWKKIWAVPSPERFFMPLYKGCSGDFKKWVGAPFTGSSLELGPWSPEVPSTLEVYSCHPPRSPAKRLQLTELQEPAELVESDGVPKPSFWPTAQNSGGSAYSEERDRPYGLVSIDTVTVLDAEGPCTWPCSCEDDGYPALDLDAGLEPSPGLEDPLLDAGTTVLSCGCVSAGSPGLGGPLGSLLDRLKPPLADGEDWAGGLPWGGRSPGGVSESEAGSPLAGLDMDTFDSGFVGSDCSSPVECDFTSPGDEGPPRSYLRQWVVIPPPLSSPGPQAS
T2 sequence (P31785 23-369 partner): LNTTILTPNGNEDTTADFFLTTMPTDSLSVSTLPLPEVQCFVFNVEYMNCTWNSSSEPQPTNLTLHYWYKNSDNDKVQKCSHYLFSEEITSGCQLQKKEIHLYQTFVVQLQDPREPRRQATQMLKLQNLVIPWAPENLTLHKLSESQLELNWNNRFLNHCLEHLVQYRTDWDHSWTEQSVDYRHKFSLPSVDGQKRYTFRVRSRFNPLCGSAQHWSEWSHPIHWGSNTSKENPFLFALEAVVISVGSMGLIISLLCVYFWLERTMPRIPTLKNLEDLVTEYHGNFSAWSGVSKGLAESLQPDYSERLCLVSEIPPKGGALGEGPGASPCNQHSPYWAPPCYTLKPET
Experimental: as §1

JAK1/3 = biological target: T3, JAK1/3 (Mus musculus, UniProt P52332+Q62137); experiment: IL-21-induced pSTAT-3 in murine whole blood; assay type: cell-based
T3 construct: endogenous in cells; host or cells: murine whole blood
Experimental: Mouse whole blood IC50 values were also generated to build an understanding of the relationship between systemic exposures and target engagement in murine models. In murine whole blood, the in vitro activity of compound of Formula I in the inhibition of IFNα-(JAK1/Tyk2), IL-21-(JAK1/3), and IL-12-(JAK2/Tyk2) induced pSTAT responses in murine whole blood was measured. […] No reliable IC50 could be reported for inhibition of IL-12 induced pSTAT-4 in murine whole blood.

[1] = Tissue distribution in rats after oral administration; assay type: in vivo, male Sprague-Dawley rats; conditions: PO 25 mg/kg; for concentration at 0.5 h / concentration at 1 h / concentration at 2 h / concentration at 3 h / concentration at 5 h / concentration at 7 h / concentration at 24 h: male, Sprague-Dawley, rat
Experimental: Preliminary tissue distribution studies were conducted in male Sprague-Dawley rats (N=3/time point) at 0.5, 1, 2, 3, 5, 7, and 24 hours following oral administration of compound of Formula I at a dose of 25 mg/kg. The following tissues were harvested for compound concentration analysis: liver, kidney, brain, muscle, epididymis fat, duodenum, jejunum, ileum, colon (both lumen content and tissue), and plasma. The results of this study indicated low systemic exposure and high local concentrations (intestinal tract).

[2] = 1 h, BLOQ 0.5 ng/mL of tissue homogenate
[3] = 2 h, BLOQ 0.5 ng/mL of tissue homogenate
[4] = 3 h, BLOQ 0.5 ng/mL of tissue homogenate
[5] = 5 h, BLOQ 0.5 ng/mL of tissue homogenate
[6] = 24 h, BLOQ 0.5 ng/mL of tissue homogenate

T1 sequence (O60674 whole entry): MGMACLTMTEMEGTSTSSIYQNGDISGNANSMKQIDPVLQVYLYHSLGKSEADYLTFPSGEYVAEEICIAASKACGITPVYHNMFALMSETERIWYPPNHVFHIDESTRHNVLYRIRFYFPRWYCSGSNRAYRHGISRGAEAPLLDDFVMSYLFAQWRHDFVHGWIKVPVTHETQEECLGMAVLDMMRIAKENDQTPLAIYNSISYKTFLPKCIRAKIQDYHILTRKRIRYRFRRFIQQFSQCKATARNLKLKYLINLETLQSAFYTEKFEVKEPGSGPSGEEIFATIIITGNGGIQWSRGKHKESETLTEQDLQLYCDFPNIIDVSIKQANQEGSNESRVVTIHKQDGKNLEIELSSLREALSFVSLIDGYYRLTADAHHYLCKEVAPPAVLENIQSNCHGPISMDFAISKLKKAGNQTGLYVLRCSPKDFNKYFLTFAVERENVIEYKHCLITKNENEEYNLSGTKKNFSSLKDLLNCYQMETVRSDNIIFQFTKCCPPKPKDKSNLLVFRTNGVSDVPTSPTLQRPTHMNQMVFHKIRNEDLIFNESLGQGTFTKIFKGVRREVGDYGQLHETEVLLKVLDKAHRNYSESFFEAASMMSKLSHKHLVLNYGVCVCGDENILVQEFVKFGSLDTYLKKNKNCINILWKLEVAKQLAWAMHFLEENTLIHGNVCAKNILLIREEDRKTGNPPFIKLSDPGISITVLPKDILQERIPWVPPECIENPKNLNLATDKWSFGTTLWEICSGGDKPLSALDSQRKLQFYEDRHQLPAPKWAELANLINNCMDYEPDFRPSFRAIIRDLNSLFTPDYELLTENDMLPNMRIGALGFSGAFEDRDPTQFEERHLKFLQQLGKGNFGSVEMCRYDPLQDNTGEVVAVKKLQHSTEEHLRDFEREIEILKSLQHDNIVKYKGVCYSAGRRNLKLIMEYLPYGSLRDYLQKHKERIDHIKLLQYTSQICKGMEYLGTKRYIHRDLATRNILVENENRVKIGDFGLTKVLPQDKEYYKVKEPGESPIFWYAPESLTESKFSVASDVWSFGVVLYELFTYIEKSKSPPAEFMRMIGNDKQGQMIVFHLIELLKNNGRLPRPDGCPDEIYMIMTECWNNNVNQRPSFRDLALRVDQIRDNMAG
T1 sequence (P40238 26-635 partner): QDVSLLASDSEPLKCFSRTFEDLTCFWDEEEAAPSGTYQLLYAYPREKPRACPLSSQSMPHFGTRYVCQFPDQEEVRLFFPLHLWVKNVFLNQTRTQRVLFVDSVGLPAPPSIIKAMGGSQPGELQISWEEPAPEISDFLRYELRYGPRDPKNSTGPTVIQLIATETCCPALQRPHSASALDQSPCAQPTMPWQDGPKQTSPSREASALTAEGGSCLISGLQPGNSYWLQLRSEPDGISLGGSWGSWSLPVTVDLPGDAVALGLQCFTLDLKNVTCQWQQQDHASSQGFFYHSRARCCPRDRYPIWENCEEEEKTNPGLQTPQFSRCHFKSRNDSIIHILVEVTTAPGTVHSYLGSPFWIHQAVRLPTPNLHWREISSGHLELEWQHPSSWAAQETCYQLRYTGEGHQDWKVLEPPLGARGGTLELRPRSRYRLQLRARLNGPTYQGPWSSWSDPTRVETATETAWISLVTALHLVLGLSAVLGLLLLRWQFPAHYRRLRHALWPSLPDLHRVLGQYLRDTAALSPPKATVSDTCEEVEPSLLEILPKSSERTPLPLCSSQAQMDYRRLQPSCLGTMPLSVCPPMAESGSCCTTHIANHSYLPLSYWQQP

IC50 (JAK2/JAK2): 490 nM
IC50 (JAK1/JAK3): 579 nM
IC50 (JAK1/3): 415 nM
Brain concentration [1, 2]: BLOQ^(a)
Fat concentration [1, 2]: BLOQ^(a)
Kidney concentration ([1]; 1 h, SD NA): 42.2 ng/g
Plasma concentration ([1]; 1 h, SD NA): 5.8 ng/mL
Brain concentration [1, 3]: BLOQ^(a)
Fat concentration [1, 3]: BLOQ^(a)
Muscle concentration [1, 3]: BLOQ^(a)
Brain concentration [1, 4]: BLOQ^(a)
Muscle concentration [1, 4]: BLOQ^(a)
Ileum Content concentration ([1]; 3 h, average, N = 3): 1,402,241 ng/mL
Brain concentration [1, 5]: BLOQ^(a)
Fat concentration [1, 5]: BLOQ^(a)
Muscle concentration [1, 5]: BLOQ^(a)
Brain concentration ([1]; 7 h, BLOQ 0.5 ng/mL of tissue homogenate): BLOQ^(a)
Plasma concentration ([1]; 24 h, BLOQ 0.5 ng/mL): BLOQ^(a)
Brain concentration [1, 6]: BLOQ^(a)
Fat concentration [1, 6]: BLOQ^(a)
Kidney concentration [1, 6]: BLOQ^(a)
Muscle concentration [1, 6]: BLOQ^(a)
concentration at 0.5 h ([1]; brain, average ±SD, read-out: Brain concentration): 3.5 ± 3.1 ng/g
concentration at 0.5 h ([1]; colon lumen content, average, N = 3, read-out: Colon Content concentration): 167 ng/mL
concentration at 1 h ([1]; colon lumen content, 1 h, average, N = 3, read-out: Colon Content concentration): 135 ng/mL
concentration at 2 h ([1]; colon lumen content, 2 h, average, N = 3, read-out: Colon Content concentration): 19100 ng/mL
concentration at 3 h ([1]; colon lumen content, 3 h, average, N = 3, read-out: Colon Content concentration): 304000 ng/mL
concentration at 5 h ([1]; colon lumen content, 5 h, average, N = 3, read-out: Colon Content concentration): 830000 ng/mL
concentration at 7 h ([1]; colon lumen content, 7 h, average, N = 3, read-out: Colon Content concentration): 834000 ng/mL
concentration at 24 h ([1]; colon lumen content, 24 h, average, N = 3, read-out: Colon Content concentration): 7590 ng/mL
concentration at 0.5 h ([1]; colon tissue, average, N = 3, read-out: Colon Tissue concentration): 946 ng/g
concentration at 1 h ([1]; colon tissue, 1 h, average, N = 3, read-out: Colon Tissue concentration): 383 ng/g
concentration at 2 h ([1]; colon tissue, 2 h, average, N = 3, read-out: Colon Tissue concentration): 2190 ng/g
concentration at 3 h ([1]; colon tissue, 3 h, average, N = 3, read-out: Colon Tissue concentration): 12400 ng/g
concentration at 5 h ([1]; colon tissue, 5 h, average, N = 3, read-out: Colon Tissue concentration): 33500 ng/g
concentration at 7 h ([1]; colon tissue, 7 h, average, N = 3, read-out: Colon Tissue concentration): 36700 ng/g
concentration at 24 h ([1]; colon tissue, 24 h, average, N = 3, read-out: Colon Tissue concentration): 353 ng/g
concentration at 0.5 h ([1]; duodenum lumen content, average, N = 3, read-out: Duod. Content concentration): 329000 ng/mL
concentration at 1 h ([1]; duodenum lumen content, 1 h, average, N = 3, read-out: Duod. Content concentration): 45500 ng/mL
concentration at 2 h ([1]; duodenum lumen content, 2 h, average, N = 3, read-out: Duod. Content concentration): 20200 ng/mL
concentration at 3 h ([1]; duodenum lumen content, 3 h, average, N = 3, read-out: Duod. Content concentration): 15800 ng/mL
concentration at 5 h ([1]; duodenum lumen content, 5 h, average, N = 3, read-out: Duod. Content concentration): 4470 ng/mL
concentration at 7 h ([1]; duodenum lumen content, 7 h, average, N = 3, read-out: Duod. Content concentration): 2630 ng/mL
concentration at 24 h ([1]; duodenum lumen content, 24 h, average, N = 3, read-out: Duod. Content concentration): 60 ng/mL
concentration at 0.5 h ([1]; duodenum tissue, average, N = 3, read-out: Duod. Tissue concentration): 35200 ng/g
concentration at 1 h ([1]; duodenum tissue, 1 h, average, N = 3, read-out: Duod. Tissue concentration): 16700 ng/g
concentration at 2 h ([1]; duodenum tissue, 2 h, average, N = 3, read-out: Duod. Tissue concentration): 3170 ng/g
concentration at 3 h ([1]; duodenum tissue, 3 h, average, N = 3, read-out: Duod. Tissue concentration): 3840 ng/g
concentration at 5 h ([1]; duodenum tissue, 5 h, average, N = 3, read-out: Duod. Tissue concentration): 1100 ng/g
concentration at 7 h ([1]; duodenum tissue, 7 h, average, N = 3, read-out: Duod. Tissue concentration): 366 ng/g
concentration at 24 h ([1]; duodenum tissue, 24 h, average, N = 3, read-out: Duod. Tissue concentration): 17 ng/g
concentration at 0.5 h ([1]; ileum lumen content, average, N = 3, read-out: Ileum Content concentration): 644 ng/mL
concentration at 1 h ([1]; ileum lumen content, 1 h, average, N = 3, read-out: Ileum Content concentration): 496 ng/mL
concentration at 2 h ([1]; ileum lumen content, 2 h, average, N = 3, read-out: Ileum Content concentration): 725000 ng/mL
concentration at 5 h ([1]; ileum lumen content, 5 h, average, N = 3, read-out: Ileum Content concentration): 597000 ng/mL
concentration at 7 h ([1]; ileum lumen content, 7 h, average, N = 3, read-out: Ileum Content concentration): 133000 ng/mL
concentration at 24 h ([1]; ileum lumen content, 24 h, average, N = 3, read-out: Ileum Content concentration): 893 ng/mL
concentration at 0.5 h ([1]; ileum tissue, average, N = 3, read-out: Ileum Tissue concentration): 1340 ng/g
concentration at 1 h ([1]; ileum tissue, 1 h, average, N = 3, read-out: Ileum Tissue concentration): 252 ng/g
concentration at 2 h ([1]; ileum tissue, 2 h, average, N = 3, read-out: Ileum Tissue concentration): 8950 ng/g
concentration at 3 h ([1]; ileum tissue, 3 h, average, N = 3, read-out: Ileum Tissue concentration): 50800 ng/g
concentration at 5 h ([1]; ileum tissue, 5 h, average, N = 3, read-out: Ileum Tissue concentration): 18000 ng/g
concentration at 7 h ([1]; ileum tissue, 7 h, average, N = 3, read-out: Ileum Tissue concentration): 6490 ng/g
concentration at 0.5 h ([1]; jejunum lumen content, average, N = 3, read-out: Jejunum Content concentration): 533000 ng/mL
concentration at 1 h ([1]; jejunum lumen content, 1 h, average, N = 3, read-out: Jejunum Content concentration): 249000 ng/mL
concentration at 2 h ([1]; jejunum lumen content, 2 h, average, N = 3, read-out: Jejunum Content concentration): 90700 ng/mL
concentration at 3 h ([1]; jejunum lumen content, 3 h, average, N = 3, read-out: Jejunum Content concentration): 48000 ng/mL
concentration at 5 h ([1]; jejunum lumen content, 5 h, average, N = 3, read-out: Jejunum Content concentration): 26300 ng/mL
concentration at 7 h ([1]; jejunum lumen content, 7 h, average, N = 3, read-out: Jejunum Content concentration): 10300 ng/mL
concentration at 24 h ([1]; jejunum lumen content, 24 h, average, N = 3, read-out: Jejunum Content concentration): 228 ng/mL
concentration at 0.5 h ([1]; jejunum tissue, average, N = 3, read-out: Jejunum Tissue concentration): 47200 ng/g
concentration at 1 h ([1]; jejunum tissue, 1 h, average, N = 3, read-out: Jejunum Tissue concentration): 23500 ng/g
concentration at 2 h ([1]; jejunum tissue, 2 h, average, N = 3, read-out: Jejunum Tissue concentration): 8230 ng/g
concentration at 3 h ([1]; jejunum tissue, 3 h, average, N = 3, read-out: Jejunum Tissue concentration): 3980 ng/g
concentration at 5 h ([1]; jejunum tissue, 5 h, average, N = 3, read-out: Jejunum Tissue concentration): 1810 ng/g
concentration at 7 h ([1]; jejunum tissue, 7 h, average, N = 3, read-out: Jejunum Tissue concentration): 788 ng/g
concentration at 24 h ([1]; jejunum tissue, 24 h, average, N = 3, read-out: Jejunum Tissue concentration): 27 ng/g
concentration at 0.5 h ([1]; kidney, average ±SD, read-out: Kidney concentration): 57.9 ± 26.2 ng/g
concentration at 2 h ([1]; kidney, 2 h, average ±SD, read-out: Kidney concentration): 24.3 ± 6.6 ng/g
concentration at 3 h ([1]; kidney, 3 h, average ±SD, read-out: Kidney concentration): 30 ± 9.4 ng/g
concentration at 5 h ([1]; kidney, 5 h, average ±SD, read-out: Kidney concentration): 12.9 ± 3.6 ng/g
concentration at 7 h ([1]; kidney, 7 h, average ±SD, read-out: Kidney concentration): 19.9 ± 7.8 ng/g
concentration at 0.5 h ([1]; liver, average ±SD, read-out: Liver concentration): 158 ± 104 ng/g
concentration at 1 h ([1]; liver, 1 h, SD NA, read-out: Liver concentration): 70.4 ng/g
concentration at 2 h ([1]; liver, 2 h, average ±SD, read-out: Liver concentration): 49.9 ± 17.5 ng/g
concentration at 3 h ([1]; liver, 3 h, average ±SD, read-out: Liver concentration): 29.6 ± 14.5 ng/g
concentration at 5 h ([1]; liver, 5 h, average ±SD, read-out: Liver concentration): 18.7 ± 3 ng/g
concentration at 7 h ([1]; liver, 7 h, average ±SD, read-out: Liver concentration): 20.7 ± 3 ng/g
concentration at 0.5 h ([1]; muscle, average ±SD, read-out: Muscle concentration): 16.7 ± 15 ng/g
concentration at 0.5 h ([1]; plasma, average ±SD, read-out: Plasma concentration): 6.3 ± 1.1 ng/mL
concentration at 2 h ([1]; plasma, 2 h, average ±SD, read-out: Plasma concentration): 3.7 ± 0.9 ng/mL
concentration at 3 h ([1]; plasma, 3 h, average ±SD, read-out: Plasma concentration): 3.1 ± 1.1 ng/mL
concentration at 5 h ([1]; plasma, 5 h, average ±SD, read-out: Plasma concentration): 1.5 ± 0.7 ng/mL
concentration at 7 h ([1]; plasma, 7 h, average ±SD, read-out: Plasma concentration): 2.1 ± 0.5 ng/mL
SMILES: CC(C)(O)CNC(=O)Cc1nc2cnc3[nH]ccc3c2n1[C@H]1CC[C@H](CC#N)CC1 [Compound of Formula I, 2-(1-((1r,4r)-4-(Cyanomethyl)cyclohexyl)-1,6-dihydroimidazo[4,5-d]pyrrolo[2,3-b]pyridin-2-yl)-N-(2-hydroxy-2-methylpropyl)acetamide]
